{"source": "patent US8101766B2", "about": "“Crystalline form of a biphenyl compound” (Theravance, Inc., priority 2004, dated 2012)", "key": {"[1]": {"test": "Thermal analysis (DSC and TGA)", "format": "physicochemical", "conditions": "DSC traces, samples of Example 6 and Example 2", "method": "Differential scanning calorimetry (DSC) was performed using a TA Instruments Model Q-10 module with a Thermal Analyst controller. Data were collected and analyzed using TA Instruments Thermal Solutions software. A sample of about 1 mg was accurately weighed into an aluminum pan with lid. The sample was evaluated using a linear heating ramp of 5° C./min from ambient temperature to approximately 300° C. The DSC cell was purged with dry nitrogen during use. A representative DSC trace for a sample of a crystalline 1,2-ethanedisulfonic acid salt of biphenyl-2-ylcarbamic acid 1-[2-(2-chloro-4-{[(R)-2-hydroxy-2-(8-hydroxy-2-oxo-1,2-dihydroquinolin-5-yl)ethylamino]methyl}-5-methoxyphenylcarbamoyl)ethyl]piperidin-4-yl ester of Example 6 is shown in FIG. 1 and a representative DSC trace for a sample of Example 2 is shown in FIG. 2.\nThermogravimetric analysis (TGA) was performed using a TA Instruments Model Q-50 module equipped with high resolution capability. Data were collected and analyzed using TA Instruments Thermal Solutions software. A sample weighing about 10 mg was placed onto a platinum pan and scanned with a high resolution-heating rate from ambient temperature to 300° C. The balance and furnace chambers were purged with nitrogen flows during use. […]"}, "[2]": {"test": "Dynamic moisture sorption (DMS) assessment", "format": "physicochemical", "conditions": "for deliquescence: exposed to atmospheric moisture / DMS", "method": "Dynamic Moisture Sorption Assessment\nA dynamic moisture sorption (DMS) assessment (also known as a moisture sorption-desorption profile) was performed for a hand ground sample of a crystalline 1,2-ethanedisulfonic acid salt of biphenyl-2-ylcarbamic acid 1-[2-(2-chloro-4-{[(R)-2-hydroxy-2-(8-hydroxy-2-oxo-1,2-dihydroquinolin-5-yl)ethylamino]methyl}-5-methoxyphenylcarbamoyl)ethyl]piperidin-4-yl ester of Preparation 18 using a VTI atmospheric microbalance, SGA-100 system (VTI Corp., Hialeah, Fla. 33016). A sample size of approximately 10 mg was used and the humidity was set at the ambient value at the start of the analysis. A typical DMS analysis consisted of three scans: ambient to 2% relative humidity (RH), 2% RH to 90% RH, 90% RH to 5% RH at a scan rate of 5% RH/step. The mass was measured every two minutes and the RH was changed to the next value (+/−5% RH) when the mass of the sample was stable to within 0.01% for 5 consecutive points."}}, "data": [{"substance": "Biphenyl-2-ylcarbamic Acid 1-[2-(2-Chloro-4-{[(R)-2-hydroxy-2-(8-hydroxy-2-oxo-1,2-dihydroquinolin-5-yl)ethylamino]methyl}-5-methoxyphenylcarbamoyl)-ethyl]piperidin-4-yl Ester 1,2-Ethanedisulfonic Acid Salt", "values": [{"measurement": "thermal stability: temperature below which no thermal decomposition", "setting": "[1]", "result": "≥ 200", "unit": "°C"}, {"measurement": "sorption/desorption profile", "setting": "[2]; DMS", "result": "reversible"}, {"measurement": "hygroscopicity", "setting": "[2]; DMS trace, scans 2% RH to 90% RH, hand ground sample of Preparation 18", "result": "< 9", "unit": "%"}, {"measurement": "deliquescence", "setting": "[2]", "result": "not deliquescent"}, {"measurement": "deliquescence", "setting": "[2]; listed as crystalline 1,2-ethanedisulfonic acid salts of the compound of formula I", "result": "not to be deliquescent"}, {"measurement": "weight gain", "setting": "[2]; humidity range of 40% RH to 75% RH", "result": "less than 2.5%"}]}]}
